From patent publication US9663569B2, “Use of blocking agents of bone morphogenic protein (BMP) signalling for the treatment of neuroinflammatory and neurodegenerative diseases” (THE MEDICAL RESEARCH, INFRASTRUCTURE, AND HEALTH SERVICES …, priority 2012, dated 2017)

System: SJL female mice with induced RR-EAE
Assay: RR-EAE clinical score in SJL mice after systemic treatment
Type: in vivo
Protocol: The SJL/EAE mice model was chosen based on its relapsing and remitting (RR) pattern, which resembles the pattern of RR-multiple sclerosis in humans. RR-EAE was induced in SJL female mice (8 weeks old, Harlan Laboratories, Ltd. Israel) by subcutaneous immunization (designated day 0) with proteolipid protein peptide (PLP139-151, BioSight Ltd.) at a concentration of 100 μg/mouse.
In both models the peptides used for EAE induction were emulsified in an equal volume of Complete Freund's Adjuvant (CFA, DIFCO), containing 500 μg Mycobacterium tuberculosis H37RA (MT, DIFCO). In addition, the mice received two consecutive intraperitoneal injections of 300 ng Pertussis toxin (PTX, Sigma-Aldrich) in 0.2 ml PBS. The first injection was given at day 0 and a second injection was given 48 h afterwards.
Day 9 post induction of EAE was chosen for administration of anti-BMP neutralizing antibodies, in order to affect both the onset and the severity of EAE. […], emulsified in 200 μl PBS: anti-human BMP-2/4 (an antibody which recognizes both BMP-2 and BMP-4), anti-human BMP-5, and anti-human BMP-7 mAbs (all anti-BMP neutralizing monoclonal antibodies were obtained from R&D systems). Commercial anti-human BMPs were used based on the high homology (>95%) between human and mouse BMPs. […] Since the blood brain barrier (BBB) is disrupted in the EAE mice by the presence of pertussis toxin, the injected antibodies are present systemically in the blood stream but are also transmitted to the CNS through the disrupted BBB.
Mice treated with corresponding isotype controls (IgG1 and IgG2β, termed herein “IC”) (R&D systems) as well as mice treated with the vehicle PBS alone (termed herein “vehicle”) were used as negative controls (n=12 in each group).
Mice were monitored for symptoms of RR-EAE and were scored as follows: “0” for no disease; “1”, tail paralysis; “2”, hind limb weakness; “3”, hind limb paralysis; “4”, hind limb and forelimb paralysis; “5”, moribund.
[…] Animals were daily monitored for EAE symptoms and scored as described above. […]

[1] = 10 mg/kg i.p. every 12 hr for 5 days from day 9 post immunization

Compound: c1cc(-c2cnn3cc(-c4ccc(OCCN5CCCCC5)cc4)cnc23)ccn1 [dorsomorphin, 6-[4-(2-Piperidin-1-yl-ethoxy)phenyl]-3-pyridin-4-yl-pyrazolo[1,5-a]pyrimidine]
- form of the disease during treatment [1]: very mild form of the disease
- onset of the first relapse delayed to day [1]: 16 days
- mice exhibiting the severe forms of the disease (score 2-5) (10 mg/kg i.p., day 9 to day 13, until day 16 post immunization): no mice
